In US12708630B2, “Combined therapy of 4′-thio-5-aza-2′-deoxycytidine and Venetoclax” (PINOTBIO, INC., priority 2021, dated 2026):
Entries after “also recorded” stand apart in the source; their conditions may differ.

Tests used:
HL-60 AML xenograft = HL-60 AML xenograft model; format: in vivo; conditions: 2.0 mg/kg
HCT-116 (colorectal) = HCT-116 (colorectal) xenograft model; format: in vivo, Mouse; conditions: nude mouse, 1 mg/kg, (4) cycles
Method: (§1) The efficacy of Aza-T-dCyd was confirmed by tumor growth curves after administration of Aza-T-dCyd in various solid cancer xenograft models. Aza-T-dCyd at a dose of 1~2 mg/kg was administered repeatedly for 2~6 cycles in QD×5, showing excellent anti-cancer effects (evidenced by test/control (T/C) value≤40%).

DNA methylation = test: DNA demethylation; format: cell-based
Description: Through DNA demethylation caused by Aza-T-dCyd treatment, various tumor suppressor genes and genes required for differentiation induction of AML cells were reactivated, and the reactivated expression patterns of these genes were confirmed by RNA-seq data analysis (FIG. 24).

[1] = Human PK simulation / human dose projection; conditions: 16 mg/day human dose
Method: The human dose of NTX-301 should be divided by 3 or 4 to adjust the mouse exposure.
The 96 mg/day must be divided by 3 or 4, resulting in 24 to 32 mg/day.
This was a safe and effective dose in mice.
Furthermore, based on the results of the combination with Venetoclax in the mouse model, an effective dose of 0.5 to 1.0 mg/kg was determined, which translates to a human dose of 8 to 16 mg+Venetoclax.

H2AX, Chk1, p53 = test: DNA damage response markers; format: cell-based
GLP dog toxicology study = format: in vivo; conditions: dog, 0.15, 0.5 and 1.0 mg/kg per day
Method: GLP-Tox studies have been conducted in rats and dogs, with 2 cycles of QD×5d at PO.
In a GLP dog toxicology study, Aza-T-dCyd was administered at 0.15, 0.5, and 1.0 mg/kg (3, 10, and 20 mg/m^2) per day. […] The maximum tolerated dose (MTD) was between 0.5 and 1 mg/kg (10~20 mg/m^2) per day, the highest non-toxic dose (HNSTD) was 0.5 mg/kg (10 mg/m^2) per day, and the no observed adverse effect level (NOAEL) was <0.15 mg/kg (3) mg/m^2) per day.

BL0382PD PDX (bladder) = format: in vivo, Mouse; conditions: NSG mouse, 1 mg/kg, (4) cycles
Description: The efficacy of Aza-T-dCyd was confirmed by tumor growth curves after administration of Aza-T-dCyd in various solid cancer xenograft models. […]

CEBP/epsilon, CDKN1B = test: CEBP/epsilon and CDKN1B expression in AML cell lines; format: cell-based
Description: CEBP/epsilon and CDKNIB expression was identified and comparatively analyzed in various AML cell lines to determine the mode of target engagement induced by DNMT1 inhibition upon treatment with Aza-T-dCyd (NTX-301) (FIG. 16).

MV4-11 AML cells = test: MV4-11 AML xenograft implanted subcutaneously, combination with venetoclax; format: in vivo, mice; parameters: anti-cancer effect (tumor volume): dose or concentration left out as unconfirmed
Method: After establishing a xenograft systemic AML model in which MV4-11 AML cells were implanted subcutaneously in mice, Aza-T-dCyd alone at 2.0 mpk for 1 cycle (5 days on, 2 days off, 5 days on, 9 days off) was administered (PO) or Aza-T-dCyd 0.5, 1.0 or 2.0 mpk plus venetoclax 50 mpk or 100 mpk administered orally (PO) for 1 cycle (venetoclax on for 5 days, off for 2 days, repeated for 3 weeks). Anti-cancer efficacy was determined in disease models in which azacitidine 5.0 mpk was administered intraperitoneally (IP) alone or in combination with optimal dose of azacitidine (2.5 mpk) and venetoclax 50 mpk or 100 mpk as a control.

DNMT3B = DNMT3B (Homo sapiens, UniProt Q9UBC3); test: Western blotting of Molm13 xenograft cancer tissues, DNMT3B; format: in vivo; parameters: cancer tissues were harvested and analyzed by Western blotting; from tissue; host or cells: Molm13 leukemia xenograft cancer tissue
DNMT3A = DNMT3A expression in HL-60 xenograft tumor samples; format: in vivo, mice; conditions: 2 mg/kg NTX-301 intraperitoneally, day 11
Method: As the efficacy of DNMT1 inhibitors correlates with their selective profile for targeting DNMT1 and the de novo methyltransferases DNMT3A and DNMT3B, we confirmed the expression of DNMT1, DNMT3A, and DNMT3B in the Aza-T-dCyd and Decitabine treated groups in this xenograft model (FIG. 27).
In the HL-60 xenograft mice model, 2 mg/kg of NTX-301 (Aza-T-dCyd) or 0.75 mg/kg of Decitabine were administered intraperitoneally, and then tumor samples were collected on day 11 to determine the expression of DNMT1, DNMT3A, and DNMT3B. […] On the other hand, the expression levels of DNMT3A and DNMT3B were different in the Aza-T-dCyd and Decitabine treatment groups.

NCI-H522 (NSCLC) = NCI-H522 (NSCLC) xenograft model; format: in vivo; conditions: nude mouse, 2 mg/kg, (6) cycles
Method: as §1

AML cell lines = test: Cell viability inhibition in AML cell lines; format: cell-based; conditions: various AML cell lines, FIG. 19
Method: The growth-inhibitory activity of Aza-T-dCyd, a DNMT1 inhibitor, was measured in leukemia cell lines to determine its inhibitory effect on cell proliferation.

Nc1ncn([C@H]2CC(O)[C@@H](CO)S2)c(=O)n1 (some centres unmarked) [Aza-T-dCyd, 4′-thio-5-aza-2′-deoxycytidine]
tumor suppression (HL-60 AML xenograft): strong tumor suppression
Optimal T/C (%) (test/control) (HCT-116 (colorectal)): 21%
overall DNA methylation levels (DNA methylation): decrease in overall DNA methylation levels
pattern of DNA demethylation (DNA methylation): biased and selective demethylation
human AUC converted to the mouse AUC value (factor of 3-4) [1]: 150 to 200 ng·h/mL
H2AX phosphorylation (H2AX, Chk1, p53): increased H2AX phosphorylation
expression of p53 protein (H2AX, Chk1, p53): increased expression of p53 protein
phosphorylation of Chk1 (H2AX, Chk1, p53): increased phosphorylation of Chk1
target organs (GLP dog toxicology study): bone marrow, thymus, gastrointestinal tract, tonsils, and testes
Optimal T/C (%) (test/control) (BL0382PD PDX (bladder)): 23%
CEBP/epsilon and CDKN1B intracellular protein expression (CEBP/epsilon, CDKN1B; MV4-11, HL-60 and KG-1a cells, 72 hours): expression of CEBP/epsilon and CDKN1B was increased
CEBP/epsilon and CDKN1B expression (CEBP/epsilon, CDKN1B; THP-1 cells, different concentrations): increased CEBP/epsilon expression and CDKN1B expression
anti-cancer effect (tumor volume) (MV4-11 AML cells; Aza-T-dCyd 0.5 mpk with venetoclax, FIGS. 30 and 31): complete tumor regression
anti-cancer efficacy of monotherapy versus Azacytidine/Venetoclax (MV4-11 AML cells; Aza-T-dCyd 2.0 mpk alone, FIGS. 28 to 33): as effective as the Azacytidine/Venetoclax group; also recorded: anti-cancer efficacy equivalent to or superior to that of Azacytidine/Venetoclax combination
anti-cancer effect (tumor volume), single agent (MV4-11 AML cells; administered alone (Aza-T-dCyd 2 mpk), FIGS. 30 and 31, listed as NTX-301): sufficiently working; also recorded: sufficiently anti-tumorigenic
DNMT3B protein of approximately 90 kDa (DNMT3B; Molm13 AML xenograft, above 0.4 mg/kg): clear reduction of DNMT3B protein
DNMT3B in cancer tissues (Western blotting) (DNMT3B; Molm13 xenograft, after administration): strongly inhibited DNMT1 and DNMT3B in a concentration-dependent manner
DNMT3A expression level in tumor samples (DNMT3A): not affected
Optimal T/C (%) (test/control) (NCI-H522 (NSCLC)): 31%
cell viability inhibition (AML cell lines): excellent cell viability inhibition
